This is an account of results in patent US20240342203A1, “COMPOSITIONS FOR ORAL CANCER OR AN OROPHARYNGEAL CANCER” (GR BIOSYSTEMS, INC., priority 2020, published 2024).

“Also recorded” adds a separate entry of the source. A value given as a limit tells only on which side of the number the result lay.

The test system of experiment [1] is MMP-13. Description: Western blot of MMP-13 protein expression/release in Cal-27 cells treated with PGG. The class given is cell-based. The note with it: 48 hours. On the procedure:
(§1) Squamous cell carcinoma cells (Cal 27) were purchased from ATCC (CRL-2095) and grown in DMEM with Glutamax, 10% FBS and Penicillin/Streptomycin (1055-024, 15140-122, 10438-018 Gibco-ThermoFischer Scientific) and kept at 37° C. in a humidified air chamber with 5% CO2. Cells were seeded at 3×10^5 cells/flask for the experiments and then grown to confluency. Cells between 3 and 10 passages were used for all experiments. 1,2,3,4,6-Penta-O-galloyl-β-D-glucose (G7548, Sigma-Aldrich) was dissolved in dimethylsulfoxide (DMSO) to obtain a 100 mM stock solution. Subsequent dilutions were done using water, and no flask contained more than 0.5 μL of DMSO (0.01%). […] During the protein extraction, media were collected, flash frozen and saved for BCA, Western Blot, and ELISA analysis. […] The proteins were detected and visualized by fluorescence using the LI-COR Odyssey Classic Infrared Imaging system (LI-COR Biosciences). Densitometry analysis of specific bands was performed with the Image Studio software provided by LI-COR Biosciences and the images analyzed using ImageStudio (LI-COR Biosciences). Statistical analysis, including one-way ANOVA with Dunnett's Multiple Comparison Test and Bonferroni, was done using GraphPad Prism 7 (Graph-Pad Software, La Jolla, CA, USA). p values were calculated using the unpaired two-sided Student's t test to compare groups, with statistical significance set at p<0.05.

For experiment [2], the system named is peripheral blood mononuclear cells (PBMCs). The note with it: PBMCs treated with PGG; cited from earlier work.
Experiment [3] deals with TNF-α. To be noted: doses as low as 5 μM; cited from earlier work.
For experiment [4], the system named is MMP-13 gene. Description: Real time quantitative PCR of MMP-13 gene expression in Cal-27 cells. The class given is cell-based, Human. The note with it: 10 or 20 μM PGG, p<0.05 and p<0.001. On the procedure:
(§2) Squamous cell carcinoma cells (Cal 27) were purchased from ATCC (CRL-2095) and grown in DMEM with Glutamax, 10% FBS and Penicillin/Streptomycin (1055-024, 15140-122, 10438-018 Gibco-ThermoFischer Scientific) and kept at 37° C. in a humidified air chamber with 5% CO2. Cells were seeded at 3×10^5 cells/flask for the experiments and then grown to confluency. Cells between 3 and 10 passages were used for all experiments. 1,2,3,4,6-Penta-O-galloyl-β-D-glucose (G7548, Sigma-Aldrich) was dissolved in dimethylsulfoxide (DMSO) to obtain a 100 mM stock solution. Subsequent dilutions were done using water, and no flask contained more than 0.5 μL of DMSO (0.01%). […] After washing the tissue culture with 1× phosphate buffered saline (PBS), the cells were lysed, and the RNA purified using a Qiagen RNeasy mini kit using the manufacturer's recommended protocol. All samples were treated with Qiagen DNase. One microgram of RNA was used for reverse transcription and subsequent SYBR® Green real time PCR for the genes of interest as previously described. […] Real time quantitative PCR was performed using an Applied Biosciences StepOne plus instrument and analyzed with StepOne software v2.3. The relative amounts of transcripts from each gene were normalized to reference gene GAPDH and calculated as follows: ΔΔCT=the average ΔCT of […]−the average ΔCT of […], and their fold difference=2−ΔΔCT.

Experiment [5] has as its system MyD88 adaptor protein. To be noted: peritoneal and colonic macrophages; cited from earlier work.
Experiment [6] concerns MMP-2. Description: Western blot of MMP-2 protein expression/release in Cal-27 cells treated with PGG. The class given is cell-based. To be noted: 48 hours, cell media. On the procedure:
as §1
For orientation: A western blot detects proteins with antibodies after separation by electrophoresis.

Experiment [7] deals with MMP-9 gene. Description: Real time quantitative PCR of MMP-9 gene expression in Cal-27 cells. The note with it: any PGG dose (1, 2.5, 5, 10 and 20 μM), n=4, p>0.05. The class given is cell-based, Human. On the procedure:
as §2

Experiment [8] deals with Stat3. In words: Western blot of Stat3 and pStat3 in Cal-27 cells treated with PGG. The note with it: 48 hours. It is filed as cell-based. On the procedure: as §1
In experiment [9] the test system is Cal 27 cells. In words: Transmembrane/Boyden Matrigel invasion assay. The class given is cell-based. The note with it: for percentage of cells invading the membrane compared with untreated control: 24 hour treatment; for Number of cells invading through Matrigel: 24 hour. On the procedure:
Squamous cell carcinoma cells (Cal 27) were purchased from ATCC (CRL-2095) and grown in DMEM with Glutamax, 10% FBS and Penicillin/Streptomycin (1055-024, 15140-122, 10438-018 Gibco-ThermoFischer Scientific) and kept at 37° C. in a humidified air chamber with 5% CO2. Cells were seeded at 3×10^5 cells/flask for the experiments and then grown to confluency. Cells between 3 and 10 passages were used for all experiments. Transmembrane/Boyden assay plates with Matrigel were purchased from Corning. DMEM with 10% FBS was used as a chemoattractant in the lower chamber while the cells in the upper chamber were cultured in DMEM with 1% FBS. Wells were prepared with different concentrations of PGG (0-10 μM) and left to incubate for 24 hour. After 24 hour media has discarded and the cells invading the Matrigel were counted according to established protocols.

Experiment [10] relates to MMP-14 gene. In words: Real time quantitative PCR of MMP-14 gene expression in Cal-27 cells. It is filed as cell-based, Human. The note with it: PGG 10-20 μM. On the procedure: as §2
Experiment [11] relates to toll-like receptors 4 (TLR4). The note with it: peritoneal and colonic macrophages; cited from earlier work.
Experiment [12] has as its system MMP-2 gene. In words: Real time quantitative PCR of MMP-2 gene expression in Cal-27 cells. The class given is cell-based, Human. On the procedure: as §2
Experiment [13] concerns MMP-9. Description: Western blot of MMP-9 protein expression/secretion in Cal-27 cells treated with PGG. It is filed as cell-based. To be noted: 48 hours. On the procedure:
as §1

`O=C(OC[C@H]1O[C@@H](OC(=O)c2cc(O)c(O)c(O)c2)[C@H](OC(=O)c2cc(O)c(O)c(O)c2)[C@@H](OC(=O)c2cc(O)c(O)c(O)c2)[C@@H]1OC(=O)c1cc(O)c(O)c(O)c1)c1cc(O)c(O)c(O)c1` [PGG, 1,2,3,4,6-penta-O-galloyl-β-D-glucose]: the “MMP-13 expression vs non-treated group” value in [1] (Cal-27 cells, 10 μM PGG, normalized to Histone H3, n=4, p<0.01) was “significantly decreased; also recorded: significantly lower”; in [1] (Cal-27 cells, 1, 2.5 or 5 μM PGG, normalized to Histone H3, n=4, p>0.05), “not significantly different”. In addition, the “production of TNF-α and IL-1β” value in experiment [2] is “resulted in the production of TNF-α and IL-1β”. In experiment [3], the “suppression of LPS-induced TNF-α production” value is listed as no more than 90%. Moreover, the “MMP-13 gene expression (mRNA)” value in experiment [4] is “decreased; also recorded: reduces”. Besides, the “interaction with MyD88 adaptor protein; effect on TNF-α, IL-1β and IL-6 production” value in experiment [5] is “interacted directly with MyD88 adaptor protein thereby decreasing the production of TNF-α, IL-1β and IL-6”. The “MMP-2 expression vs non-treated group” value is recorded as “significantly decreased; also recorded: significantly lower” in experiment [6] (Cal-27 cells, 10 μM PGG, n=4, p<0.01) and “not significantly different” in [6] (Cal-27 cells, 1, 2.5 or 5 μM PGG, n=4, p>0.05). For the same molecule, in experiment [7], the “MMP-9 gene expression (mRNA) vs non-treated group” value is on record as “not significantly different; also recorded: did not significantly decrease”. In addition, the “Stat3 phosphorylation (pStat3)” value in experiment [8] (PGG at different concentrations, normalized to Histone H3, n=4, p<0.0001) is on record as “significantly decreases; also recorded: decrease of Stat3 phosphorylation”. For the same molecule, the “Non-phosphorylated / total Stat3 vs non-treated cells” value in experiment [8] (PGG at varying concentrations, n=4, p<0.0001) is “significantly higher; also recorded: increase in total Stat3”. The “percentage of cells invading the membrane compared with untreated control” value in [9] (0.5 μM PGG) is given as 44.5%; in experiment [9] (10 μM PGG (maximum effect)) it was 22.3%. The “Number of cells invading through Matrigel” value in experiment [9] (PGG 0.5 and 1 μM, n=4, p<0.001) is “significantly lower”; in experiment [9] (PGG 2.5, 5 and 10 μM, n=4, p<0.0001), “significantly lower”. In addition, in experiment [10], the “MMP-14 gene expression (mRNA) vs non-treated” value is listed as “reduces”. In experiment [11], the “interference with binding of LPS to TLR4” value was “did not interfere”. Also, in experiment [12] (PGG 5 and 10 μM, GAPDH housekeeping, n=4, p<0.0001), the “MMP-2 gene expression (mRNA)” value is given as “significantly decreased”. The “MMP-2 gene expression (mRNA) vs non-treated” value in experiment [12] (PGG 10-20 μM) is “reduces”. The “MMP-9 expression vs non-treated group” value in experiment [13] (1 or 2.5 μM PGG, normalized to Histone H3, n=4, p>0.05) was “not significantly different”; in experiment [13] (5 or 10 μM PGG, normalized to Histone H3, n=4, p<0.05 and p<0.01), “significantly decreased; also recorded: significantly lower”.
